This note sets out measurements from ChEMBL document CHEMBL5625165, “Nine-valent oleanolic acid conjugates as potent inhibitors blocking the entry of influenza A virus” (Eur J Med Chem, 2023).

One may read the IC50 as the concentration needed to halve the response being measured. What is called CC50 is the concentration giving 50% cytotoxicity.

Series [1] in a line: Cytotoxicity against dog MDCK cells assessed as cell viability at 30 uM incubated for 48 hrs by celltiter-glo assay. The following applies: read-out: Activity. The format is toxicity, cell-based, Canis lupus familiaris. A general note: ATP-based viability assays read luminescence as a measure of living cells.
Series [2] has as its system Influenza A virus. The series can be described thus: Antiviral activity against influenza A virus A/WSN/33(H1N1) infected in MDCK cells assessed as inhibition of viral growth at 30 uM incubated for 48 hrs by microscopic analysis. The format is functional. The arrangement: scale not given: the % may be the effect or the level left.
Series [3] relates to Influenza A virus. The series can be described thus: Antiviral activity against influenza A virus A/WSN/33(H1N1) infected in MDCK cells assessed as inhibition of viral-induced cytopathic effect incubated for 48 hrs by microscopic analysis. The format is functional, organism-based. On the technique in general: Damage to the host cells serves as the signal in cytopathic effect assays.

Series [4] can be described thus: Cytotoxicity against dog MDCK cells assessed as reduction in cell viability incubated for 48 hrs by celltiter-glo assay. The format is toxicity, cell-based, Canis lupus familiaris.
Series [5] can be described thus: Selectivity index, ratio of CC50 for cytotoxicity against dog MDCK cells assessed as reduction in cell viability to IC50 for antiviral activity against influenza A virus A/WSN/33(H1N1) infected in MDCK cells assessed as inhibition of viral-induced cytopathic effect. Type of series: toxicity, cell-based. The following applies: read-out: Ratio CC50/IC50.

Take `COC(=O)c1cc(OCc2cn(CCOCCOCCOCCNC(=O)c3cc(OCc4cn(CCOCCOCCOCCNC(=O)[C@]56CCC(C)(C)C[C@H]5C5=CC[C@@H]7[C@@]8(C)CC[C@H](O)C(C)(C)[C@@H]8CC[C@@]7(C)[C@]5(C)CC6)nn4)c(OCc4cn(CCOCCOCCOCCNC(=O)[C@]56CCC(C)(C)C[C@H]5C5=CC[C@@H]7[C@@]8(C)CC[C@H](O)C(C)(C)[C@@H]8CC[C@@]7(C)[C@]5(C)CC6)nn4)c(OCc4cn(CCOCCOCCOCCNC(=O)[C@]56CCC(C)(C)C[C@H]5C5=CC[C@@H]7[C@@]8(C)CC[C@H](O)C(C)(C)[C@@H]8CC[C@@]7(C)[C@]5(C)CC6)nn4)c3)nn2)c(OCc2cn(CCOCCOCCOCCNC(=O)c3cc(OCc4cn(CCOCCOCCOCCNC(=O)[C@]56CCC(C)(C)C[C@H]5C5=CC[C@@H]7[C@@]8(C)CC[C@H](O)C(C)(C)[C@@H]8CC[C@@]7(C)[C@]5(C)CC6)nn4)c(OCc4cn(CCOCCOCCOCCNC(=O)[C@]56CCC(C)(C)C[C@H]5C5=CC[C@@H]7[C@@]8(C)CC[C@H](O)C(C)(C)[C@@H]8CC[C@@]7(C)[C@]5(C)CC6)nn4)c(OCc4cn(CCOCCOCCOCCNC(=O)[C@]56CCC(C)(C)C[C@H]5C5=CC[C@@H]7[C@@]8(C)CC[C@H](O)C(C)(C)[C@@H]8CC[C@@]7(C)[C@]5(C)CC6)nn4)c3)nn2)c(OCc2cn(CCOCCOCCOCCNC(=O)c3cc(OCc4cn(CCOCCOCCOCCNC(=O)[C@]56CCC(C)(C)C[C@H]5C5=CC[C@@H]7[C@@]8(C)CC[C@H](O)C(C)(C)[C@@H]8CC[C@@]7(C)[C@]5(C)CC6)nn4)c(OCc4cn(CCOCCOCCOCCNC(=O)[C@]56CCC(C)(C)C[C@H]5C5=CC[C@@H]7[C@@]8(C)CC[C@H](O)C(C)(C)[C@@H]8CC[C@@]7(C)[C@]5(C)CC6)nn4)c(OCc4cn(CCOCCOCCOCCNC(=O)[C@]56CCC(C)(C)C[C@H]5C5=CC[C@@H]7[C@@]8(C)CC[C@H](O)C(C)(C)[C@@H]8CC[C@@]7(C)[C@]5(C)CC6)nn4)c3)nn2)c1`: the viability at 48 h, 30 µM in series [1] was determined as 100%. Also, the Activity in the series with Influenza A virus [2] amounted to 65.08%. For the same compound, the IC50 in the series on Influenza A virus [3] is 47.1 µM. The CC50 at 48 h in series [4] was more than 30 µM. Moreover, in series [5], the selectivity ratio was more than 0.64.
For `CC1(C)CC[C@]2(C(=O)O)CC[C@]3(C)C(=CC[C@@H]4[C@@]5(C)CC[C@H](O)C(C)(C)[C@@H]5CC[C@]43C)[C@@H]2C1` [OLEANOLIC_ACID], the viability at 48 h, 30 µM in series [1] was 99%. Also, the Activity in the series with Influenza A virus [2] came to 25.06%. Further, the CC50 at 48 h in series [4] is more than 100 µM. Moreover, the selectivity ratio in series [5] was more than 1.38.
